For series [1] the following is noted: Crystal.
Series [2] in a line: Molar enthalpy of transition or fusion. The settings on record: Crystal.

The structures appear in SMILES notation. Numbers after ± are expanded uncertainties.

Turning to `CC1=CCC2C(=O)OC(=O)C2C1` (configuration not stated) [4-methyl-cyclohex-4-ene-1, 2-dicarboxylic acid anhydride], the Normal melting temperature in series [1] came out at 62.39 ± 0.83 °C. The “Molar enthalpy of transition or fusion” value in series [2] worked out at 4.223 ± 0.0239 kcal/mol.

For the origin of these results see the NIST ThermoML archive (doi:10.1021/je049585t).
